The record followed here is patent publication US10370354B2, “Metalloenzyme inhibitor compounds” (NQP 1598, LTD., priority 2011, dated 2019).

Values after ≈ are worked out from the molar mass of the structure shown.

The subject of experiment [1] is A. fumigatus. The experiment can be described thus: A. fumigatus MIC, CLSI M38-A2. The note with it: Aspergillus fumigatus, read-out: Aspergillus MIC.
Method: A. fumigatus MICs were determined at both 50% and 100% growth inhibition following CLSI guidelines at a concentration range of 64-0.062 μg/mL (CLSI M38-A2).
Experiment [2] concerns C. albicans. The experiment is described as follows: Minimum Inhibitory Concentration (MIC), C. albicans, CLSI M27-A2. The format is cell-based. The note with it: Candida albicans MIC50; about 50% growth reduction; approximately 48 h at 35±1° C. How it is done:
Compounds were assessed for their ability to inhibit the growth of common strains of fungus, C. albicans using a standardized procedure (CLSI M27-A2).
Stock solutions of the test compounds and standards were prepared in DMSO at 1600 μg/mL (C. albicans). Eleven, serial, one-half dilutions of compounds were prepared in 96-well plates in RPMI+MOPS. The assay concentration ranges were 1-0.001 μg/mL (C. albicans). Cell suspensions of C. albicans were prepared and added to each well at concentrations of approximately 3.7×10^3 colony-forming-units per milliliter (cfu/mL). All testing was in duplicate. The inoculated plates were incubated for approximately 48 h at 35±1° C. At the completion of incubation the wells of each plate were evaluated visually for the presence of fungal growth.
For voriconazole the M1C was the concentration which reduced C. albicans growth by 50% (per CLST, M27-A2). For QC purposes C. krusei isolate ATCC 6258 (4.0×10^3 cfu/mL) was included in the VOR assay.

The subject of experiment [3] is Puccinia. The experiment can be described thus: protection from fungal growth in planta, Puccinia. The experiment is classed as in vivo. The note with it: applied at 50 ppm; Puccinia pathogen.
The subject of experiment [4] is Septoria tritici. The experiment is described as follows: standard Septoria tritici MIC assay (ATCC 26517, CLSI protocol). The experiment is classed as cell-based. The note with it: Zymoseptoria tritici, ATCC26517, range stated for the three compounds together.
Experiment [5] deals with Septoria. The experiment is described as follows: protection from fungal growth in planta, Septoria. To be noted: applied at 50 ppm; Septoria pathogen. The experiment is classed as in vivo.
Experiment [6] relates to A. fumigatus. The experiment is described as follows: standard 4-day mouse model of A. fumigatus, kidney fungal burden. The format is in vivo. To be noted: oral administration at 20 mg/kg each of 4 days. How it is done:
For example, oral administration of Compound (−)-9 at 20 mg/kg each of 4 days reduced mouse kidney fungal burden 84% compared to control.

The term MIC denotes the lowest concentration that inhibits growth of the organism. Turning to `OC(Cn1cnnn1)(c1ccc(F)cc1F)C(F)(F)c1ccc(C#Cc2ccc(Cl)cc2)cn1` (racemic) [Example 2, 1-(5-((4-Chlorophenyl)ethynyl)pyridin-2-yl)-2-(2,4-difluorophenyl)-1,1-difluoro-3-(1H-tetrazol-1-yl)propan-2-ol], the MIC in experiment [1] was 8 µg/mL (≈ 16.4 µM); in experiment [2], 0.004 µg/mL (≈ 0.0082 µM); in experiment [4], 0.25 to 1 µg/mL (≈ 0.512 to 2.05 µM). In addition, the “protection from fungal growth in planta” value in experiment [3] and in experiment [5] was “provide protection from fungal growth” in each case.
`OC(Cn1cnnn1)(c1ccc(F)cc1F)C(F)(F)c1ccc(C#Cc2ccc(F)cc2)cn1` (racemic) [Example 3, 2-(2,4-Difluorophenyl)-1,1-difluoro-1-(5-((4-fluorophenyl)ethynyl)pyridin-2-yl)-3-(1H-tetrazol-1-yl)propan-2-ol] displayed an MIC in experiment [4] of 0.25 to 1 µg/mL (≈ 0.53 to 2.12 µM).
Consider `OC(Cn1cnnn1)(c1ccc(F)cc1F)C(F)(F)c1ccc(C#Cc2ccc(C(F)(F)F)cc2)cn1` (racemic) [Example 5, 2-(2,4-Difluorophenyl)-1,1-difluoro-3-(1H-tetrazol-1-yl)-1-(5-((4-(trifluoromethyl)phenyl)ethynyl)pyridin-2-yl)propan-2-ol], for which the MIC was 8 µg/mL (≈ 15.3 µM) in experiment [1] and 0.016 µg/mL (≈ 0.0307 µM) in experiment [2].
Taken in the same sequence, the figures for `OC(c1ccc(C#Cc2ccc(C(F)(F)C(O)(Cn3cnnn3)c3ccc(F)cc3F)nc2)cc1)C(F)(F)F` (racemic) [Example 9, 2-(2,4-difluorophenyl)-1,1-difluoro-3-(1H-tetrazol-1-yl)-1-(5-((4-(2,2,2-trifluoro-1-hydroxyethyl)phenyl)ethynyl)pyridin-2-yl)propan-2-ol] were 0.5 µg/mL (≈ 0.907 µM) and no more than 0.001 µg/mL.
Regarding `OC(Cn1cnnn1)(c1ccc(F)cc1F)C(F)(F)c1ccc(C#Cc2cccc(Cl)c2)cn1` (racemic) [Example 21, 1-(5-((3-chlorophenyl)ethynyl)pyridin-2-yl)-2-(2,4-difluorophenyl)-1,1-difluoro-3-(1H-tetrazol-1-yl)propan-2-ol], the MIC in experiment [4] fell in the range of 0.25 to 1 µg/mL (≈ 0.512 to 2.05 µM).
On to `OC(Cn1cnnn1)(c1ccc(F)cc1F)C(F)(F)c1ccc(C#Cc2ccc(OCc3ccc(OC(F)(F)F)cc3)cc2)cn1` (racemic) [Example 101, 2-(2,4-difluorophenyl)-1,1-difluoro-3-(1H-tetrazol-1-yl)-1-(5-((4-(4-(trifluoromethoxy)benzyloxy)phenyl)ethynyl)pyridin-2-yl)propan-2-ol], for which the MIC in experiment [1] stood at 2 µg/mL (≈ 3.11 µM); in experiment [2] it was 0.25 µg/mL (≈ 0.388 µM).
Taken in the same sequence, the figures for `OC(Cn1cnnn1)(c1ccc(F)cc1F)C(F)(F)c1ccc(C#Cc2ccc(OCc3ccc(Cl)cc3F)cc2)cn1` (racemic) [Example 108, 1-(5-((4-(4-chloro-2-fluorobenzyloxy)phenyl)ethynyl)pyridin-2-yl)-2-(2,4-difluorophenyl)-1,1-difluoro-3-(1H-tetrazol-1-yl)propan-2-ol] were 4 µg/mL (≈ 6.54 µM) and 0.062 µg/mL (≈ 0.101 µM).
On to `OC(c1ccc(C#Cc2ccc(C(F)(F)C(O)(Cn3cnnn3)c3ccc(F)cc3F)nc2)cc1)C(F)(F)F` (stereo not drawn) [Compound (−)-9, 2-(2,4-difluorophenyl)-1,1-difluoro-3-(1H-tetrazol-1-yl)-1-(5-((4-(2,2,2-trifluoro-1-hydroxyethyl)phenyl)ethynyl)pyridin-2-yl)propan-2-ol], for which the “reduced mouse kidney fungal burden compared to control” value in experiment [6] was found to be 84%.
As to `C[C@@H](c1ncncc1F)[C@](O)(Cn1cncn1)c1ccc(F)cc1F` [Voriconazole, reference compound], the MIC amounted to 0.25 µg/mL (≈ 0.716 µM) in experiment [1] and 0.016 µg/mL (≈ 0.0458 µM) in experiment [2].
